Legend:
Assay type in all cases: cell-based
[1] = system: Human Cytomegalovirus AD-169; test: Plaque forming unit (PFU) inhibition assay, Human Cytomegalovirus AD-169 in MRC5 cell line; conditions: Human Cytomegalovirus AD-169, MRC5 cells, positive control, tested 0.33-100 μM
Description: EPS from the thraustochytrid designated MT-5 were tested for inhibition of Cytomegalovirus. A stock solution of 20 mg/ml of the EPS was prepared by solubilizing in 10% DMSO for injection into the cell lines infected by the virus.
Various dilutions of the stock EPS were prepared in the tissue culture medium, Dulbecco ? Modified Eagle medium with 2% fetal bovine serum and antibiotics. The dilutions were: (1) 100 ? /ml; (2) 33 ? /ml; (3) 10 ? /ml; (4) 3.3 μg/ml; (5) 1.0 ? /ml; (6) 0.33 μg/ml. A plaque forming unit (PFU) inhibition assay in 6-well plates in vitro was carried out. A known concentration of cells from MRC5 cell line was used to seed 6-well or 12-well plates for 24 hours. Each of the 6 different concentrations of the EPS was then added to duplicate wells and incubated for 1 hour and then approximately 50-100 plaque forming units of the Human Cytomegalovirus AD-169 in 10 ? were added to each well. Virus was allowed to absorb to the cells for 2 hours. After the incubation the virus was removed and agarose solution with EPS at each different was added to the appropriate infected well. Plates were incubated in a 37° C. CO2 incubator for 5 days. The drug Acyclovir was kept as a positive control, at concentrations of 100, 33, 10, 3.3, 1.0 and 0.33 μM concentrations. […] Plaques were counted and numbers recorded. […]

[2] = system: Retrovirus XMRV (Xenotropic Murine Leukemia Virus); test: Focus forming unit (FFU) inhibition assay, Retrovirus XMRV in PG4 cell line; conditions: PG4 cells, positive control, tested 0.33-100 μM
Description: EPS from two thraustochytrids designated MT-5 and MT-6 were tested for inhibition of retrovirus A stock solution of 20 mg/ml of the EPS was prepared by solubilizing in 10% DMSO for injection into the cell lines infected by the virus. Various dilutions of the stock EPS were prepared in the tissue culture medium, Dulbecco ? Modified Eagle medium with 2% fetal bovine serum and antibiotics. The dilutions were: (1) 100 ? /ml; (2) 33 ? /ml; 10 ? /ml; (4) 3.3 μg/ml; (5) 1.0 μg/ml; (6) 0.33 μg/ml. A focus forming unit (FFU) inhibition assay in 6-well plates in vitro was carried out. A known concentration of cells from PG4 cell line was used to seed 6-well or 12-well plates for 24 hours. Each of the 6 different concentrations of the EPS was then added to duplicate wells and incubated for 1 hour and then approximately 50-100 focus forming units of the Retrovirus XMRV (Xenotropic Murine Leukemia Virus) in 10 ? were added to each well. Virus was allowed to absorb to the cells for 2 hours. After the incubation the virus was removed and agarose solution with EPS at each different was added to the appropriate infected well Plates were incubated in a 37° C. CO2 incubator for 5 days. The drug Tenofovir was kept as a positive control, at concentrations of 100, 33, 10, 3.3, 1.0 and 0.33 μM concentrations. At the end of incubation, cultures were fixed and stained with crystal violet to visualize the foci. […]

Human Adenovirus 5 = test: Plaque forming unit (PFU) inhibition assay, Human Adenovirus 5 in A549 cell line; conditions: Human Adenovirus 5, A549 cells, positive control, tested 0.33-100 μM; not at less
Description: EPS from two thraustochytrids, designated MT-5 and MT-6 were tested for inhibition of Adenovirus. A stock solution of 20 mg/ml of the EPS was prepared by solubilizing in 10% DMSO for injection into the cell lines infected by the virus. Various dilutions of the stock EPS were prepared in the tissue culture medium, Dulbecco ? Modified Eagle medium with 2% fetal bovine serum and antibiotics. The dilutions were: (1) 100 μg/ml; (2) 33 μg/ml; (3) 10 μg/ml; (4) 3.3 μg/ml; (5) 1.0 μg/ml; (6) 0.33 μg/ml. A plaque forming unit (PFU) inhibition assay in 6-well plates in vitro was carried out. A known concentration of cells from A549 cell line was used to seed 6-well or 12-well plates for 24 hours. Each of the 6 different concentrations of the EPS was then added to duplicate wells and incubated for 1 hour and then approximately 50-100 plaque forming units of Human Adenovirus 5 in 10 ? were added to each well. Virus was allowed to absorb to the cells for 2 hours. After the incubation the virus was removed and agarose solution with EPS at each different was added to the appropriate infected well. Plates were incubated in a 37° C. CO2 incubator for 5 days. The drug Cidofovir was kept as a positive control, at concentrations of 100, 33, 10, 3.3, 1.0 and 0.33 μM concentrations. […] Plaques were counted and numbers recorded. […]

Nc1nc2c(ncn2COCCO)c(=O)[nH]1 [Acyclovir]
effective concentration (not effective at any concentration tested, up to the maximum) [1]: > 100.0 µM

C[C@H](Cn1cnc2c(N)ncnc21)OCP(=O)(O)O [Tenofovir]
concentration above which the drug was effective (viral foci) [2]: > 10.0 µM | concentration that completely inhibited focal formation [2]: 100 µM

Nc1ccn(C[C@@H](CO)OCP(=O)(O)O)c(=O)n1 [Cidofovir]
concentration that completely inhibited plaque formation (Human Adenovirus 5): 100 µM
